Test results from patent US20100210597A1, “C21-Deoxy Ansamycin Derivatives as Antitumor Agents” (priority 2007, published 2010).
Several values for one entry are separate records, joined by “and”; a condition that tells them apart may be missing. Identical values can stand only once.

Experiments:
[1] = Aqueous solubility by direct dissolution; format: physicochemical; conditions: water, deionised water; limit not tested
Description: It is not possible to measure the solubility of 20 and 23 by this method due to their intrinsic high aqueous solubility.

LXF 1121L = test: Monolayer proliferation assay (modified propidium iodide), LXF 1121L; format: cell-based, human; conditions: average of 2 experiments
Method: (§1) In vitro evaluation of compounds for anticancer activity in a panel of human tumour cell lines in a monolayer proliferation assay was carried out at the Oncotest Testing Facility, Institute for Experimental Oncology, Oncotest GmbH, Freiburg.
(§2) The Oncotest cell lines are established from human tumor xenografts as described by Roth et al., (1999). The origin of the donor xenografts is described by Fiebig et al., (1999). Other cell lines are either obtained from the NCl (DU145, MCF-7) or purchased from DSMZ, Braunschweig, Germany.
(§3) All cell lines, unless otherwise specified, are grown at 37° C. in a humidified atmosphere (95% air, 5% CO2) in a ‘ready-mix’ medium containing RPMI 1640 medium, 10% fetal calf serum, and 0.1 mg/mL gentamicin (PAA, Cölbe, Germany).
(§4) A modified propidium iodide assay was used to assess the effects of the test compound(s) on the growth of six human tumour cell lines (Dengler et al., (1995)).
(§5) Briefly, cells are harvested from exponential phase cultures by trypsinization, counted and plated in 96 well flat-bottomed microtitre plates at a cell density dependent on the cell line (5-10.000 viable cells/well). After 24 h recovery to allow the cells to resume exponential growth, 0.010 mL of culture medium (6 control wells per plate) or culture medium containing macbecin were added to the wells. Each concentration is plated in triplicate. Compounds were applied in two concentrations (0.001 mM and 0.01 mM). Following 4 days of continuous exposure, cell culture medium with or without test compound was replaced by 0.2 mL of an aqueous propidium iodide (P1) solution (7 mg/L). To measure the proportion of living cells, cells were permeabilized by freezing the plates. After thawing the plates, fluorescence was measured using the Cytofluor 4000 microplate reader (excitation 530 nm, emission 620 nm), giving a direct relationship to the total number of viable cells.
(§6) Growth inhibition is expressed as treated/control×100 (% T/C).
(§7) In vitro evaluation of the test compound, 20, for anticancer activity in a panel of human tumour cell lines in a monolayer proliferation assay was carried out as described in the general methods using a modified propidium iodide assay.

MEXF 394NL = test: Monolayer proliferation assay (modified propidium iodide), MEXF 394NL; format: cell-based, human; conditions: average of 2 experiments
Method: as §1, §2, §3, §4, §5, §6, §7

For CO[C@H]1C[C@H](C)Cc2cc(cc(OP(=O)(O)O)c2)NC(=O)/C(C)=C/CC[C@H](C)[C@@H](OC(N)=O)/C(C)=C/[C@H](C)[C@H]1O [Compound 20, 4,5-dihydro-11-O-demethyl-15-demethoxy-18,21-didehydro-21-deoxomacbecin-18-phosphate], the solubility [1] was ≥ 10000 µg/mL and ≥ 17000 µM, the “Test/Control (%) at drug concentration (μg/mL)” value (“Test/Control (%)” below) (LXF 1121L; 0.01 μg/mL) was 103% and the “Test/Control (%)” value (LXF 1121L; 0.1 μg/mL) was 58%. For the same compound, the “Test/Control (%)” value (LXF 1121L; 1 μg/mL) was 15%, the “Test/Control (%)” value (LXF 1121L; 10 μg/mL) was 14% and the “Test/Control (%)” value (LXF 1121L; 100 μg/mL) was 5%. The “Test/Control (%)” value (MEXF 394NL; 0.01 μg/mL) was 102%, the “Test/Control (%)” value (MEXF 394NL; 0.1 μg/mL) was 50% and the “Test/Control (%)” value (MEXF 394NL; 1 μg/mL) was 17%. For the same compound, the “Test/Control (%)” value (MEXF 394NL; 10 μg/mL) was 16% and the “Test/Control (%)” value (MEXF 394NL; 100 μg/mL) was 3%.
